Assay type in all cases: in vivo, New Zealand White rabbits
The nature of assay [1]: Chemical analysis of blood of rabbits fed 1% cholesterol diets. As to conditions: 1% cholesterol diet plus 0.1% rutin or quercetin or 1 mg/kg Lovastatin, 6 weeks. The protocol:
24 three-month-old New Zealand White rabbits (Yeonam Horticulture and Animal Husbandry College, Korea), each weighing about 2.5 to 2.6 kg, were raised under a condition of temperature 20±2° C., relative humidity 55±5%, and photoperiod 12L/12D. […] RC4 diet comprises 7.6% moisture, 22.8% crude protein, 2.8% crude fat, 8.8% crude ash, 14.4% crude cellulose and 43.6% soluble nitrogen-free substances. Rutin and quercetin were purchased from Sigma Co. (St. Louis, Mo.).
The rabbits were fed for 6 weeks while being allowed free access to the diets and water.
After six weeks, the rabbits were anesthetized with an intramuscular injection of ketamine (50 mg/kg) in the femoral region and sacrificed. A blood sample was taken from the heart of each rabbit, allowed to stand for 2 hours and centrifuged at 3,000 rpm for 15 minutes and the supernatant serum was separated and stored in a freezer before use.
The chemical analysis of blood was carried out by employing a blood chemical analyzer (CIBA Corning 550 Express, USA) to determine the changes in GOT, GPT, γ-GTP, total cholesterol and triglyceride levels.

Assay [2] has as its system main artery fatty streak / arterial endothelium. The assay can be described thus: Analysis for fatty streak in the main artery of cholesterol-fed rabbits. The protocol:
(§1) 24 three-month-old New Zealand White rabbits (Yeonam Horticulture and Animal Husbandry College, Korea), each weighing about 2.5 to 2.6 kg, were raised under a condition of temperature 20±2° C., relative humidity 55±5%, and photoperiod 12L/12D. […] RC4 diet comprises 7.6% moisture, 22.8% crude protein, 2.8% crude fat, 8.8% crude ash, 14.4% crude cellulose and 43.6% soluble nitrogen-free substances.
The chest of each of the rabbits sacrificed in Step 2 was incised. The downward portion of the main artery from the site 1 cm above the aortic valve was cut out in a length of about 5 cm and the fat surrounding the main artery was removed. The main artery was incised in the middle along the longitudinal axis and pinned to a dish. The moist artery was photographed and, then, the staining of fatty streaks was carried out in accordance with the method of Esper, E., et al. (J. Lab. Clin. Med., 121, 103-110 (1993)) as follows.
A part of the incised main artery was washed three times with anhydrous propylene glycol for 2 min and stained for 30 min. with a saturated solution of Oil Red O (ORO, Sigma Co.) dissolved in propylene glycol. Thereafter, the artery was washed twice with 85% propylene glycol for 3 min. to remove remaining staining solution and, then washed with physiological saline. The artery was photographed and the photograph was traced. The area of stained region (fatty streak region) was determined with an image analyzer (LEICA, Q-600, Germany) and its proportion (%) to the total arterial area was calculated.

In assay [3] the test system is liver cells around the central vein. Description: Microscopic grading of abnormal fat-containing cells in the liver of cholesterol-fed rabbits. As to conditions: 1% cholesterol plus 1 mg/kg Lovastatin or 0.1% rutin. The protocol: as §1

This note sets out measurements from patent publication US6562866B1 (priority 1998, dated 2003).

As to `CC[C@H](C)C(=O)O[C@H]1C[C@@H](C)C=C2C=C[C@H](C)[C@H](CC[C@@H]3C[C@@H](O)CC(=O)O3)[C@H]21` [Lovastatin ®, Lovastatin, reference compound], in assay [1], the “TG (triglyceride)” value is 65.6 mg/dL and the “Total-C (total cholesterol)” value stood at 1209.5 mg/dL. In addition, in assay [2] (1% cholesterol diet plus 0.1% rutin or quercetin or 1 mg/kg Lovastatin, 6 weeks, Oil Red O staining), the “A: Proportion (%) of fatty streak region to the total arterial area” value is listed as 5%. The “layer of macrophage-lipid complex on the arterial endothelium (FIGS. 1B, 1C)” value in assay [2] (1% cholesterol plus 1 mg/kg Lovastatin or 0.1% rutin) is on record as “no or very thin layers”. For the same molecule, in assay [3], the “microscopic features of the liver (FIGS. 2B, 2C)” value is recorded as “many cells containing excessive fat”.
